From PubChem BioAssay AID1259411 (Chemical Carcinogenesis Research Information System (CCRIS), 2018)
Active and inactive are the calls of the source. No rule for the calls is given here.

Test system: rodent carcinogenicity bioassays, tumor incidence
Assay: CCRIS carcinogenicity studies
Settings: Dose: 0, Dose: 0
How it was run: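 Archive of carcinogenicity, mutagenicity, tumor promotion and tumor inhibition results drawn from journals, NCI reports and other sources, expert-reviewed; covers 1985-2011 and is no longer updated.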

With `F` the carcinogen call (Species: MOUSE, Strain/Sex: B6C3F1/FEMALE, Route: ORAL, 25, 100, 175 PPM IN DRINKING WATER FOR 103 WK (STUDY DURATION: 103 WK), 25, 100, 175 PPM IN DRINKING WATER FOR 103 WK (STUDY DURATION: 103 WK)) was “inactive; negative”, the carcinogen call (Species: MOUSE, Strain/Sex: B6C3F1/MALE, Route: ORAL, 25, 100, 175 PPM IN DRINKING WATER FOR 103 WK (STUDY DURATION: 103 WK), 25, 100, 175 PPM IN DRINKING WATER FOR 103 WK (STUDY DURATION: 103 WK)) was “inactive; negative” and the carcinogen call (Species: MOUSE, Strain/Sex: F344/MALE, Route: ORAL, 25, 100, 175 PPM IN DRINKING WATER FOR 103 WK (STUDY DURATION: 103 WK), 25, 100, 175 PPM IN DRINKING WATER FOR 103 WK (STUDY DURATION: 103 WK), Tumor Site: Type of Lesion: BONE: OSTEOSARCOMA) was “equivocal”. For the same compound, the carcinogen call (Species: RAT, Strain/Sex: F344/FEMALE, Route: ORAL, 25, 100, 175 PPM IN DRINKING WATER FOR 103 WK (STUDY DURATION: 103 WK), 25, 100, 175 PPM IN DRINKING WATER FOR 103 WK (STUDY DURATION: 103 WK)) was “inactive; negative”, the carcinogen call (Species: RAT, Strain/Sex: SPRAGUE-DAWLEY/FEMALE, Route: ORAL, 4, 10, 25 MG/KG/D ADDED TO LOW-FLUORIDE DIET FOR DURATION OF STUDY (STUDY DURATION: 99 WK), 4, 10, 25 MG/KG/D ADDED TO LOW-FLUORIDE DIET FOR DURATION OF STUDY (STUDY DURATION: 99 WK)) was “inactive; negative” and the carcinogen call (Species: RAT, Strain/Sex: SPRAGUE-DAWLEY/MALE, Route: ORAL, 4, 10, 25 MG/KG/D ADDED TO LOW-FLUORIDE DIET FOR DURATION OF STUDY (STUDY DURATION: 95 WK), 4, 10, 25 MG/KG/D ADDED TO LOW-FLUORIDE DIET FOR DURATION OF STUDY (STUDY DURATION: 95 WK)) was “inactive; negative”.

For `C=C(C)[C@H]1CC=C(C)C(=O)C1`, the carcinogen call (Species: MOUSE, Strain/Sex: B6C3F1/FEMALE, Route: GAVAGE, 375, 750 MG/KG IN CORN OIL 5 D/WK FOR 103 WK (STUDY DURATION: 104 WK), 375, 750 MG/KG IN CORN OIL 5 D/WK FOR 103 WK (STUDY DURATION: 104 WK)) was “inactive; negative” and the carcinogen call (Species: MOUSE, Strain/Sex: B6C3F1/MALE, Route: GAVAGE, 375, 750 MG/KG IN CORN OIL 5 D/WK FOR 103 WK (STUDY DURATION: 104 WK), 375, 750 MG/KG IN CORN OIL 5 D/WK FOR 103 WK (STUDY DURATION: 104 WK), Tumor Site: Type of Lesion: KIDNEY: TUBULAR CELL ADENOCARCINOMA) was “inactive; negative”.

With `CC(C)CON=O` the carcinogen call (Species: MOUSE, Strain/Sex: B6C3F1/FEMALE, Route: INHALATION, 158, 315, 630 MG/M3 6 HR/D 5 D/WK FOR 103 WK (STUDY DURATION: 104 WK), 158, 315, 630 MG/M3 6 HR/D 5 D/WK FOR 103 WK (STUDY DURATION: 104 WK), Tumor Site: Type of Lesion: LUNG: ALVEOLAR/BRONCHIOLAR ADENOMA, ALVEOLAR/BRONCHIOLAR ADENOMA OR CARCINOMA) was “active; positive”, the carcinogen call (Species: MOUSE, Strain/Sex: B6C3F1/MALE, Route: INHALATION, 158, 315, 630 MG/M3 6 HR/D 5 D/WK FOR 103 WK (STUDY DURATION: 104 WK), 158, 315, 630 MG/M3 6 HR/D 5 D/WK FOR 103 WK (STUDY DURATION: 104 WK), Tumor Site: Type of Lesion: LUNG: ALVEOLAR/BRONCHIOLAR ADENOMA, ALVEOLAR/BRONCHIOLAR ADENOMA OR CARCINOMA) was “active; positive” and the carcinogen call (Species: RAT, Strain/Sex: F344/FEMALE, Route: INHALATION, 158, 315, 630 MG/M3 6 HR/D 5 D/WK FOR 103 WK (STUDY DURATION: 105 WK), 158, 315, 630 MG/M3 6 HR/D 5 D/WK FOR 103 WK (STUDY DURATION: 105 WK), Tumor Site: Type of Lesion: LUNG: ALVEOLAR/BRONCHIOLAR ADENOMA, ALVEOLAR/BRONCHIOLAR CARCINOMA OR ADENOMA) was “active; positive”. The carcinogen call (Species: RAT, Strain/Sex: F344/MALE, Route: INHALATION, 158, 315, 630 MG/M3 6 HR/D 5 D/WK FOR 103 WK (STUDY DURATION: 105 WK), 158, 315, 630 MG/M3 6 HR/D 5 D/WK FOR 103 WK (STUDY DURATION: 105 WK), Tumor Site: Type of Lesion: LUNG: ALVEOLAR/BRONCHIOLAR ADENOMA, ALVEOLAR/BRONCHIOLAR CARCINOMA) was “active; positive”.

In the case of `O=NN1CCN(N=O)CC1`, the carcinogen call (Species: RAT, Strain/Sex: F344/FEMALE, Route: INTRAVESICAL, 374 MG (TOTAL DOSE) INJECTED INTO BLADDER 2/WK OVER 36 WK (STUDY DURATION: 102 WK), Tumor Site: Type of Lesion: NASAL CAVITY: TUMOR) is reported as “active; positive”.

In the case of `c1ccc2c(c1)ccc1cc3ccc4ccccc4c3nc12`, the carcinogen call (Species: MOUSE, Strain/Sex: CD-1/FEMALE, Route: INTRAPERITONEAL, 175 NMOL (TOTAL DOSE) ADMINISTERED AS 1/7 OF DOSE WITHIN 24 HR AFTER BIRTH, 2/7 OF DOSE AT 8 D OLD, 4/7 OF DOSE AT 15, Tumor Site: Type of Lesion: LUNG: TUMOR) is reported as “active; positive” and the carcinogen call (Species: MOUSE, Strain/Sex: CD-1/MALE, Route: INTRAPERITONEAL, 175 NMOL (TOTAL DOSE) ADMINISTERED AS 1/7 OF DOSE WITHIN 24 HR AFTER BIRTH, 2/7 OF DOSE AT 8 D OLD, 4/7 OF DOSE AT 15, Tumor Site: Type of Lesion: LIVER: TUMOR, LUNG: TUMOR) is reported as “active; positive”.

For `Oc1cc(O)c2c(c1)O[C@H](c1ccc(O)c(O)c1)[C@@H](O)C2`, the carcinogen call (Species: RAT, Strain/Sex: F344/FEMALE, Route: ORAL, 2% IN DIET FOR 104 WK (STUDY DURATION: 104 WK), Tumor Site: Type of Lesion: GLANDULAR STOMACH: ADENOCARCINOMA) was “active; positive” and the carcinogen call (Species: RAT, Strain/Sex: F344/MALE, Route: ORAL, 2% IN DIET FOR 104 WK (STUDY DURATION: 104 WK), Tumor Site: Type of Lesion: GLANDULAR STOMACH: ADENOCARCINOMA) was “active; positive”.
